Assay results as given in EP1948196B1, “USE OF TETRAORGANOSILICON COMPOUNDS” (Salama, Zoser B., priority 2005, dated 2007).
Like-named read-outs stand apart in the source and are kept apart here. Numbered stars: 1 amine (or outer) side, 2 acyl side, 3 side chain; on linkers, the order of the positions; unused ones are H or OH. Bridge positions count the residues as written; N and C are the ends. Peptide text beside a SMILES is read from it. I, II: the chains in the order shown. X1 = C[Si](C)(O[*:1])O[*:2]

Experiments:
[1] = system: Entero-Viren; assay: Antiviral effect; details: in particular as vesicles holding antisense constructs
[2] = system: Medulloblastome; assay: Effect on medulloblastomas
[3] = system: Osteosarkom bzw. Adenokarzinome; assay: Effect in mice on osteosarcoma or adenocarcinoma; parameters: species or system Mäuse; details: in vivo
[4] = system: Zellen des Basatzellkarzinoms; assay: Inhibition of cell multiplication; type: cell-based
[5] = system: Medulloblastom-Zellen; assay: Inhibition of cell multiplication; type: cell-based
[6] = system: Sendai-Viren; assay: Antiviral effect; details: in particular as vesicles holding antisense constructs
[7] = system: Basalzellkarzinome; assay: Effect on basal cell carcinomas
[8] = system: Angiosarkome; assay: Effect on angiosarcomas
[9] = system: Hepatitis B-Viren; assay: Antiviral effect; details: in particular as vesicles holding antisense constructs
[10] = system: Adenokarzinome; assay: Effect on adenocarcinomas
[11] = system: Basalzellkarzinome; assay: Effect on basal cell carcinomas; remark: listed apart in the source
[12] = system: Osteosarkomen; assay: Antimetastatic effect in rats; type: in vivo; details: in Ratten
[13] = system: Seminome; assay: Effect on seminomas
[14] = system: Hepatitis C-Viren; assay: Antiviral effect; details: in particular as vesicles holding antisense constructs
[15] = system: HIV-Vren; assay: Antiviral effect; details: in particular as vesicles holding antisense constructs
[16] = system: Lymphome; assay: Effect on lymphomas
[17] = system: Adenokarzinom-Gewebe; assay: Effect against adenocarcinoma tissue, inhibition of metastasis

## C[Si](C)(OC(=O)CNC(=O)CNC(=O)CNC(=O)CNC(=O)CNC(=O)CNC(=O)CNC(=O)CN)OC(=O)CNC(=O)CNC(=O)CNC(=O)CNC(=O)CNC(=O)CNC(=O)CNC(=O)CN [Dimethyl bis(octaglycyl)silylester] (I: H-GGGGGGGG / II: H-GGGGGGGG; linker I:C-II:C via X1)
[1]
  Wirkung gegen Entero-Viren: zeigen eine Wirkung
[2]
  Wirkung gegen Medulloblastome: zeigen eine Wirkung

## C[C@H](N)C(=O)N[C@@H](C)C(=O)N[C@@H](C)C(=O)O[Si](C)(C)OC(=O)[C@H](C)NC(=O)[C@H](C)NC(=O)[C@H](C)N [Dimethyl bis(trialanyl)sillylester]
[3]
  Wirkung auf Mäuse, Osteosarkom bzw. Adenokarzinome: zeigen eine Wirkung
[4]
  Vermehrung von Zellen des Basatzellkarzinoms: inhibieren
[5]
  Vermehrung von Medulloblastom-Zellen: inhibieren

## CCCCCCCCCCCCCCCCC(=O)O[Si](CCC)(CCC)OC(=O)CCCCCCCCCCCCCCCC [Di(heptadecanoyloxy)dipropylsilan]
[6]
  Wirkung gegen Sendai-Viren: zeigen eine Wirkung
[7]
  Wirkung auf Basalzellkarzinome: zeigen eine Wirkung
[8]
  Wirkung gegen Angiosarkome: zeigen eine Wirkung
[9]
  Wirkung gegen Hepatitis B-Viren: zeigen eine Wirkung

## CC(C)[C@H](N)C(=O)N[C@H](C(=O)N[C@H](C(=O)N[C@H](C(=O)N[C@H](C(=O)O[Si](C)(C)OC(=O)[C@@H](NC(=O)[C@@H](NC(=O)[C@@H](NC(=O)[C@@H](NC(=O)[C@@H](N)C(C)C)C(C)C)C(C)C)C(C)C)C(C)C)C(C)C)C(C)C)C(C)C)C(C)C [Dimethyl bis(pentavalyl)silylester]
[10]
  Wirkung auf Adenokarzinome: zeigen eine Wirkung

## C[C@H](N)C(=O)N[C@@H](C)C(=O)N[C@@H](C)C(=O)N[C@@H](C)C(=O)N[C@@H](C)C(=O)N[C@@H](C)C(=O)N[C@@H](C)C(=O)N[C@@H](C)C(=O)O[Si](C)(C)OC(=O)[C@H](C)NC(=O)[C@H](C)NC(=O)[C@H](C)NC(=O)[C@H](C)NC(=O)[C@H](C)NC(=O)[C@H](C)NC(=O)[C@H](C)NC(=O)[C@H](C)N [Dimethyl bis(octaalanyl)silylester] (I: H-AAAAAAAA / II: H-AAAAAAAA; linker I:C-II:C via X1)
[3]
  Wirkung auf Mäuse, Osteosarkom bzw. Adenokarzinome: zeigen eine Wirkung
[4]
  Vermehrung von Zellen des Basatzellkarzinoms: inhibieren
[5]
  Vermehrung von Medulloblastom-Zellen: inhibieren

## CCCCCCCCCCCCCCCC(=O)O[Si](CCC)(CCC)OC(=O)CCCCCCCCCCCCCCC [Di(hexadecanoyloxy)dipropylsilan]
[6]
  Wirkung gegen Sendai-Viren: zeigen eine Wirkung
[7]
  Wirkung auf Basalzellkarzinome: zeigen eine Wirkung
[8]
  Wirkung gegen Angiosarkome: zeigen eine Wirkung
[9]
  Wirkung gegen Hepatitis B-Viren: zeigen eine Wirkung

## C[Si](C)(OC(=O)[C@H](Cc1ccccc1)NC(=O)[C@H](Cc1ccccc1)NC(=O)[C@@H](N)Cc1ccccc1)OC(=O)[C@H](Cc1ccccc1)NC(=O)[C@H](Cc1ccccc1)NC(=O)[C@@H](N)Cc1ccccc1 [Dimethyl bis(triphenylalanyl)silylester]
[11]
  Wirkung auf Basalzellkarzinome: zeigen eine Wirkung

## CCCCCCCCCC(=O)O[Si](OC(=O)CCCCCCCCC)(C(C)C)C(C)C [Di(decanoyloxy)diisopropylsilan]
[12]
  antimetastasierende Wirkung bei Osteosarkomen: zeigen eine antimetastasierende Wirkung

## CCCCC/C=C\C/C=C\CCCCCCCC(=O)O[Si](CCC)(CCC)OC(=O)CCCCCCC/C=C\C/C=C\CCCCC [Di(linoylooxy)dipropylsilan]
[13]
  Wirkung auf Seminome: zeigen eine Wirkung
[14]
  Wirkung gegen Hepatitis C-Viren: zeigen eine Wirkung

## CC/C=C\C/C=C\C/C=C\CCCCCCCC(=O)O[Si](OC(=O)CCCCCCC/C=C\C/C=C\C/C=C\CC)(C(C)C)C(C)C [Di(linolenoylooxy) diisopropylsilan]
[15]
  Wirkung gegen HIV-Vren: zeigen eine Wirkung
[16]
  Wirkung auf Lymphome: zeigen eine Wirkung

## CC/C=C\C/C=C\C/C=C\CCCCCCCC(=O)O[Si](CCC)(CCC)OC(=O)CCCCCCC/C=C\C/C=C\C/C=C\CC [Di(linolenoylooxy)dipropylsilan]
[13]
  Wirkung auf Seminome: zeigen eine Wirkung
[14]
  Wirkung gegen Hepatitis C-Viren: zeigen eine Wirkung

## CCCCCCCCCCCCCCCCCC(=O)O[Si](CCC)(CCC)OC(=O)CCCCCCCCCCCCCCCCC [Di(octadecanoyloxy)dipropylsilan]
[6]
  Wirkung gegen Sendai-Viren: zeigen eine Wirkung
[7]
  Wirkung auf Basalzellkarzinome: zeigen eine Wirkung
[8]
  Wirkung gegen Angiosarkome: zeigen eine Wirkung
[9]
  Wirkung gegen Hepatitis B-Viren: zeigen eine Wirkung

## C[Si](C)(OC(=O)CNC(=O)CNC(=O)CN)OC(=O)CNC(=O)CNC(=O)CN [Dimethyl bis(triglycyl)silylester]
[1]
  Wirkung gegen Entero-Viren: zeigen eine Wirkung
[2]
  Wirkung gegen Medulloblastome: zeigen eine Wirkung

## C[C@H](N)C(=O)N[C@@H](C)C(=O)N[C@@H](C)C(=O)N[C@@H](C)C(=O)N[C@@H](C)C(=O)O[Si](C)(C)OC(=O)[C@H](C)NC(=O)[C@H](C)NC(=O)[C@H](C)NC(=O)[C@H](C)NC(=O)[C@H](C)N [Dimethyl bis(pentaalanyl)silylester]
[3]
  Wirkung auf Mäuse, Osteosarkom bzw. Adenokarzinome: zeigen eine Wirkung
[4]
  Vermehrung von Zellen des Basatzellkarzinoms: inhibieren
[5]
  Vermehrung von Medulloblastom-Zellen: inhibieren

## CCCCCCCC(=O)O[Si](OC(=O)CCCCCCC)(C(C)C)C(C)C [Di(octanoyloxy)diisopropylsilan]
[6]
  Wirkung gegen Sendai-Viren: zeigen eine Wirkung
[7]
  Wirkung auf Basalzellkarzinome: zeigen eine Wirkung
[8]
  Wirkung gegen Angiosarkome: zeigen eine Wirkung
[9]
  Wirkung gegen Hepatitis B-Viren: zeigen eine Wirkung

## CCCCCCCC/C=C\CCCCCCCC(=O)O[Si](CC)(CC)OC(=O)CCCCCCC/C=C\CCCCCCCC [Di (oleylooxy)diethylsilan]
[13]
  Wirkung auf Seminome: zeigen eine Wirkung
[14]
  Wirkung gegen Hepatitis C-Viren: zeigen eine Wirkung

## CC(C)[C@H](N)C(=O)N[C@H](C(=O)N[C@H](C(=O)N[C@H](C(=O)N[C@H](C(=O)N[C@H](C(=O)N[C@H](C(=O)N[C@H](C(=O)O[Si](C)(C)OC(=O)[C@@H](NC(=O)[C@@H](NC(=O)[C@@H](NC(=O)[C@@H](NC(=O)[C@@H](NC(=O)[C@@H](NC(=O)[C@@H](NC(=O)[C@@H](N)C(C)C)C(C)C)C(C)C)C(C)C)C(C)C)C(C)C)C(C)C)C(C)C)C(C)C)C(C)C)C(C)C)C(C)C)C(C)C)C(C)C)C(C)C [Dimethyl bis(octavalyl)silylester] (I: H-VVVVVVVV / II: H-VVVVVVVV; linker I:C-II:C via X1)
[10]
  Wirkung auf Adenokarzinome: zeigen eine Wirkung

## CC(C)[C@H](N)C(=O)N[C@H](C(=O)N[C@H](C(=O)O[Si](C)(C)OC(=O)[C@@H](NC(=O)[C@@H](NC(=O)[C@@H](N)C(C)C)C(C)C)C(C)C)C(C)C)C(C)C [Dimethyl bis(trivalyl)silylester]
[10]
  Wirkung auf Adenokarzinome: zeigen eine Wirkung

## CC/C=C\C/C=C\C/C=C\CCCCCCCC(=O)O[Si](CC)(CC)OC(=O)CCCCCCC/C=C\C/C=C\C/C=C\CC [Di(linolenoylooxy)diethylsilan]
[13]
  Wirkung auf Seminome: zeigen eine Wirkung
[14]
  Wirkung gegen Hepatitis C-Viren: zeigen eine Wirkung

## CCCCCCCCC(=O)O[Si](OC(=O)CCCCCCCC)(C(C)C)C(C)C [Di(nonanoyloxy)diisopropylsilan]
[12]
  antimetastasierende Wirkung bei Osteosarkomen: zeigen eine antimetastasierende Wirkung

## CC(C)[C@H](N)C(=O)N[C@H](C(=O)N[C@H](C(=O)N[C@H](C(=O)O[Si](C)(C)OC(=O)[C@@H](NC(=O)[C@@H](NC(=O)[C@@H](NC(=O)[C@@H](N)C(C)C)C(C)C)C(C)C)C(C)C)C(C)C)C(C)C)C(C)C [Dimethyl bis(tetravalyl)silylester]
[10]
  Wirkung auf Adenokarzinome: zeigen eine Wirkung

## C[Si](C)(OC(=O)[C@H](Cc1ccccc1)NC(=O)[C@H](Cc1ccccc1)NC(=O)[C@H](Cc1ccccc1)NC(=O)[C@@H](N)Cc1ccccc1)OC(=O)[C@H](Cc1ccccc1)NC(=O)[C@H](Cc1ccccc1)NC(=O)[C@H](Cc1ccccc1)NC(=O)[C@@H](N)Cc1ccccc1 [Dimethyl bis(tetraphenylalanyl)slylester]
[11]
  Wirkung auf Basalzellkarzinome: zeigen eine Wirkung

## CCCCCCCCCCCCCCCC(=O)O[Si](OC(=O)CCCCCCCCCCCCCCC)(C(C)C)C(C)C [Di(hexadecanoyloxy)diisopropylsilan]
[17]
  Wirkung gegen Adenokarzinom-Gewebe, insbesondere inhibierende Wirkung auf die Metastasierung: haben eine Wirkung

## CCCCC/C=C\C/C=C\CCCCCCCC(=O)O[Si](OC(=O)CCCCCCC/C=C\C/C=C\CCCCC)(C(C)C)C(C)C [Di(linoylooxy)diisopropylsilan]
[15]
  Wirkung gegen HIV-Vren: zeigen eine Wirkung
[16]
  Wirkung auf Lymphome: zeigen eine Wirkung

## CCCCCCCCCCC(=O)O[Si](OC(=O)CCCCCCCCCC)(C(C)C)C(C)C [Di(undecanoyloxy)diisopropysilan]
[12]
  antimetastasierende Wirkung bei Osteosarkomen: zeigen eine antimetastasierende Wirkung

## C[C@H](N)C(=O)N[C@@H](C)C(=O)N[C@@H](C)C(=O)N[C@@H](C)C(=O)O[Si](C)(C)OC(=O)[C@H](C)NC(=O)[C@H](C)NC(=O)[C@H](C)NC(=O)[C@H](C)N [Dimethyl bis(tetraalanyl)silylester]
[3]
  Wirkung auf Mäuse, Osteosarkom bzw. Adenokarzinome: zeigen eine Wirkung
[4]
  Vermehrung von Zellen des Basatzellkarzinoms: inhibieren
[5]
  Vermehrung von Medulloblastom-Zellen: inhibieren

## C[Si](C)(OC(=O)CNC(=O)CNC(=O)CNC(=O)CN)OC(=O)CNC(=O)CNC(=O)CNC(=O)CN [Dimethyl bis(tetraglycyl)silylester]
[1]
  Wirkung gegen Entero-Viren: zeigen eine Wirkung
[2]
  Wirkung gegen Medulloblastome: zeigen eine Wirkung

## C[Si](C)(OC(=O)CNC(=O)CNC(=O)CNC(=O)CNC(=O)CN)OC(=O)CNC(=O)CNC(=O)CNC(=O)CNC(=O)CN [Dimethyl bis(pentaglycyl)silylester]
[1]
  Wirkung gegen Entero-Viren: zeigen eine Wirkung
[2]
  Wirkung gegen Medulloblastome: zeigen eine Wirkung
